{"source": "BindingDB's records for patent US11912682", "about": "(Monte Rosa Therapeutics, 2024)", "target": "Protein cereblon (Homo sapiens, UniProt Q96SW2)", "sequence (Q96SW2 whole entry)": "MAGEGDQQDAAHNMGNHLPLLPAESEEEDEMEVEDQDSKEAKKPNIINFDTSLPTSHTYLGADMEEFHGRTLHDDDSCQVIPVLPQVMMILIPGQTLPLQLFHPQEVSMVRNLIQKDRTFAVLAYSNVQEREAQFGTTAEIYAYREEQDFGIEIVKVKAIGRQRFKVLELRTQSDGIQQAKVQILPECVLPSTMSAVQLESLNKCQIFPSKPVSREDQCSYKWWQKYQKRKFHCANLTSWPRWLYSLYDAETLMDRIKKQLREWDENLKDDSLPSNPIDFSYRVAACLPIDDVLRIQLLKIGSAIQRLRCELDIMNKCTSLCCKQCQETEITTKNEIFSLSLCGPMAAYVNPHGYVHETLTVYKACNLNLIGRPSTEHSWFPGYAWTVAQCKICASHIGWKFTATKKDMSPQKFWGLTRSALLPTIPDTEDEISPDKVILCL", "experiment": "Compound Activity by Fluorescent Polarization Assay", "protocol": "Compound activity was monitored in a fluorescence polarization (FP) homogeneous assay using 1-[5-({2-[2-(2-{[2-(2,6-dioxopiperidin-3-yl)-1,3-dioxo-2,3-dihydro-1H-isoindol-4-yl]oxy}acetamido)ethoxy]ethyl}carbamoyl)pentyl]-3,3-dimethyl-2-[(1E,3E)-5-[(2E)-1,3,3-trimethyl-5-sulfo-2,3-dihydro-1H-indol-2-ylidene]penta-1,3-dien-1-yl]-3H-indol-1-ium-5-sulfonate as a fluorescent probe. Unless otherwise stated, all reagents were purchased from Sigma Aldrich. Enzymatic reactions were conducted in Perkin-Elmer Black 384 well ProxiPlate Plus (catalogue no. 6008269) in 10 μL total volume. Full length wild-type cereblon CRBN (80.0 nM, 10 μL) was incubated in assay buffer containing 20 mM HEPES (pH 8.0), […], 0.5 mM TCEP and 0.05% Tween 20 in the presence or absence of compound (300 nL). Inhibitors were stored as 10 mM DMSO stocks in an inert environment (low humidity, dark, low oxygen, room temperature) using the Storage Pod System. Compounds and DMSO were dispensed using the Echo ESXX (Labcyte Inc. USA) to give concentrations from 300 to 0.937 or 3000 to 9.3 nM in a 12 data point curve. […] FP was measured after a period of 12 hours using a Pherastar plate reader (BMG Labtech, Germany) exciting at 590 nm and measuring the amount of parallel and perpendicular light at 675 nm. […]"}
{"smiles": "O=C1CCC(N2Cc3ccc(COC(=O)Nc4cc(Cl)cc(OC(F)(F)F)c4)cc3C2=O)C(=O)N1", "note": "(stereo unspecified) [US11912682, Compound 11]", "values": [{"measurement": "IC50", "result": "> 1700", "unit": "nM"}]}
